Measured values reported in PMC5761851, “Application of a phenotypic drug discovery strategy to identify biological and chemical starting points for inhibition of TSLP production in lung epithelial cells” (PLoS ONE, 2018).

Assays:
Test in all cases: kinase selectivity panel
Type in all cases: biochemical
ASK1 = molecular target: T1, ASK1 (Homo sapiens, UniProt Q99683); settings: read-out: percentage of control activity (POC), ASK1
T1 construct: purchased Eurofins Pharma Discovery Services (KinaseProfiler; Cerep BioPrint panel)
T1 sequence (Q99683 1-1374): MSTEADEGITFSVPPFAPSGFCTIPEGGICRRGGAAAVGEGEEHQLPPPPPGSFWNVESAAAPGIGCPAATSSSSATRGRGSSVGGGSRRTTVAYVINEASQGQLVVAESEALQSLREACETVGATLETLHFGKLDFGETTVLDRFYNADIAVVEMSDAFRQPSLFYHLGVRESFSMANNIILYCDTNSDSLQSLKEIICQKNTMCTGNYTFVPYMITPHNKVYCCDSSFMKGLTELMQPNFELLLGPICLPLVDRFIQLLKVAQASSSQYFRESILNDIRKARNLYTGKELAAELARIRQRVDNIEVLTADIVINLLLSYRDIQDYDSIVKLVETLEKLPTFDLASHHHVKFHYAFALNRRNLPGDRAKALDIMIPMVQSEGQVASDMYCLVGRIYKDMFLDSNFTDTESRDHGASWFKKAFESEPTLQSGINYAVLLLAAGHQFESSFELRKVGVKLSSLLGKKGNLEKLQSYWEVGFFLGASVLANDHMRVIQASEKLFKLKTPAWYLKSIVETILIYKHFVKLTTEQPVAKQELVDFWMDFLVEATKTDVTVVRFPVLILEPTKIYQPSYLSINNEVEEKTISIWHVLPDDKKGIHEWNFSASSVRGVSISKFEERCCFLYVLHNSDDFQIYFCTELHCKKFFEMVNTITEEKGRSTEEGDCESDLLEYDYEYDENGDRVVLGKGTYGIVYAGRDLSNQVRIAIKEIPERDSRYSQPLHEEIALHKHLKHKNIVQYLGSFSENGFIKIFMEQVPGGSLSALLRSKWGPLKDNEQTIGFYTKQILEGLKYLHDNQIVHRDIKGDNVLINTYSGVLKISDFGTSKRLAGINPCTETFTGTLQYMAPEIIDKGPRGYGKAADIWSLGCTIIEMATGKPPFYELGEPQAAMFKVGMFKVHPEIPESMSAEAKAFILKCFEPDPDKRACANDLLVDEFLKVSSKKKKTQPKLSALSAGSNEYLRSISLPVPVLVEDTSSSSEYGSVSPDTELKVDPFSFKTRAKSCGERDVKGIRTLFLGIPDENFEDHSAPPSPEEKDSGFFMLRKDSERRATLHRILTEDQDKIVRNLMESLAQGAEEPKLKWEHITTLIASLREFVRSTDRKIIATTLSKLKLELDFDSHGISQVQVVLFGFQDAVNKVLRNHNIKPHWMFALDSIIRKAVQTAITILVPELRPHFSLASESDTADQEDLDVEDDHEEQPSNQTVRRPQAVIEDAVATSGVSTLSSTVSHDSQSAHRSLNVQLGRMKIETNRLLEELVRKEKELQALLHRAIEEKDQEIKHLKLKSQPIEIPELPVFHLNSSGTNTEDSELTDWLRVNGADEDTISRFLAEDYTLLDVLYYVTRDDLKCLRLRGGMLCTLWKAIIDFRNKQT
Summary of the method: (§1)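 First, 125 representative kinases were exposed to 10 μM compound in duplicate; next, selected activities were titrated over 9 concentrations in duplicate, and IC50 values were calculated.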

JAK3 = molecular target: T2, JAK3 (Homo sapiens, UniProt P52333); settings: read-out: percentage of control activity (POC), JAK3
T2 construct: purchased Eurofins Pharma Discovery Services (KinaseProfiler; Cerep BioPrint panel)
T2 sequence (P52333 1-1124): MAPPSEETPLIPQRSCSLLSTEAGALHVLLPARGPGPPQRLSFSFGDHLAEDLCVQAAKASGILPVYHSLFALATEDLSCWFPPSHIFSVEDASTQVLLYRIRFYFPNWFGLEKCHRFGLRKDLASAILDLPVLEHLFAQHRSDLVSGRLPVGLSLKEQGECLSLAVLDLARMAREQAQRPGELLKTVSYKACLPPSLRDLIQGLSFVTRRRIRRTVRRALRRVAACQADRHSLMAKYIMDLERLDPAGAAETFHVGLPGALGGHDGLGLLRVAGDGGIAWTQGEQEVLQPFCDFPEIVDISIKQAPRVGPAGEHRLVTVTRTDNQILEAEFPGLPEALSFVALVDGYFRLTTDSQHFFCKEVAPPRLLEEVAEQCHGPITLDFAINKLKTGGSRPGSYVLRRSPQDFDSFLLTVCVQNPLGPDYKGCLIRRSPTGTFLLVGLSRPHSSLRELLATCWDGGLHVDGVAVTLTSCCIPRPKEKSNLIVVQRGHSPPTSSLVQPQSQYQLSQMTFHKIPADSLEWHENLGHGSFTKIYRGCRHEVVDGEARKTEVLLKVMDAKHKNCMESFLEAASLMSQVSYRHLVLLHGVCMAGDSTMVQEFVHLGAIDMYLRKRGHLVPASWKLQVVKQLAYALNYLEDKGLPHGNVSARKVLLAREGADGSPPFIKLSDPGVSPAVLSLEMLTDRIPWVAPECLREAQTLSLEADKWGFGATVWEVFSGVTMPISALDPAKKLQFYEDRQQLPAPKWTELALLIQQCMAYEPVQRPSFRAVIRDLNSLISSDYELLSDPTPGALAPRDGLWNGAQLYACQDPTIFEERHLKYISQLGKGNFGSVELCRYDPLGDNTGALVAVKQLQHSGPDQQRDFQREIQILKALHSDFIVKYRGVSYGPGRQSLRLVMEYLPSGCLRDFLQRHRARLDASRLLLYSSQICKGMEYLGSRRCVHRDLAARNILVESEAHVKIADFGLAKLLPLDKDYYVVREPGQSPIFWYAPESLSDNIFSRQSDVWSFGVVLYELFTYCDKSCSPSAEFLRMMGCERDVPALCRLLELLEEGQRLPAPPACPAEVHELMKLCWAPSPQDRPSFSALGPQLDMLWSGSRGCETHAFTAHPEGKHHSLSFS
Summary of the method: as §1

CaMKIIδ = molecular target: T3, CaMKIIδ (Homo sapiens, UniProt Q13557); settings: read-out: percentage of control activity (POC), CaMKIIδ
T3 construct: purchased Eurofins Pharma Discovery Services (KinaseProfiler; Cerep BioPrint panel)
Summary of the method: as §1

Plk3 = molecular target: T4, Plk3 (Homo sapiens, UniProt Q9H4B4); settings: read-out: percentage of control activity (POC), Plk3
T4 construct: purchased Eurofins Pharma Discovery Services (KinaseProfiler; Cerep BioPrint panel)
Summary of the method: as §1

EphA5 = molecular target: T5, EphA5 (Homo sapiens, UniProt P54756); settings: read-out: percentage of control activity (POC), EphA5
T5 construct: purchased Eurofins Pharma Discovery Services (KinaseProfiler; Cerep BioPrint panel)
Summary of the method: as §1

T4 sequence (Q9H4B4 whole entry): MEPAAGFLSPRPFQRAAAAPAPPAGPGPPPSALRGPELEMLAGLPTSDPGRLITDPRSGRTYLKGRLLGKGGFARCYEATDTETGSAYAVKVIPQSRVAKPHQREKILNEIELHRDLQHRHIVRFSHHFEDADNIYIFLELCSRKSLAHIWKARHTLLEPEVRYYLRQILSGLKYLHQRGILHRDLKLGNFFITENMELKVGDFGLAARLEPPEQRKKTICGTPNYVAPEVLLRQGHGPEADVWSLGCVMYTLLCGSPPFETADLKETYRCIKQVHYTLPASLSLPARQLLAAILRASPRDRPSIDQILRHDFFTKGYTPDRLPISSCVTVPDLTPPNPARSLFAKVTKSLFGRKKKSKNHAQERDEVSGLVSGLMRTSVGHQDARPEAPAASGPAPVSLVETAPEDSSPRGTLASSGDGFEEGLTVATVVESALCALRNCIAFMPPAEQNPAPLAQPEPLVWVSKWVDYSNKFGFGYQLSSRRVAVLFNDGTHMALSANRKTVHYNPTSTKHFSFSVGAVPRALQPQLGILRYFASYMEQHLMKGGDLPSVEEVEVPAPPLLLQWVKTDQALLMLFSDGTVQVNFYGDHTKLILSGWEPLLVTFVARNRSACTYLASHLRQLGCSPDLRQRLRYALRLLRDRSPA
T5 sequence (P54756 25-1037): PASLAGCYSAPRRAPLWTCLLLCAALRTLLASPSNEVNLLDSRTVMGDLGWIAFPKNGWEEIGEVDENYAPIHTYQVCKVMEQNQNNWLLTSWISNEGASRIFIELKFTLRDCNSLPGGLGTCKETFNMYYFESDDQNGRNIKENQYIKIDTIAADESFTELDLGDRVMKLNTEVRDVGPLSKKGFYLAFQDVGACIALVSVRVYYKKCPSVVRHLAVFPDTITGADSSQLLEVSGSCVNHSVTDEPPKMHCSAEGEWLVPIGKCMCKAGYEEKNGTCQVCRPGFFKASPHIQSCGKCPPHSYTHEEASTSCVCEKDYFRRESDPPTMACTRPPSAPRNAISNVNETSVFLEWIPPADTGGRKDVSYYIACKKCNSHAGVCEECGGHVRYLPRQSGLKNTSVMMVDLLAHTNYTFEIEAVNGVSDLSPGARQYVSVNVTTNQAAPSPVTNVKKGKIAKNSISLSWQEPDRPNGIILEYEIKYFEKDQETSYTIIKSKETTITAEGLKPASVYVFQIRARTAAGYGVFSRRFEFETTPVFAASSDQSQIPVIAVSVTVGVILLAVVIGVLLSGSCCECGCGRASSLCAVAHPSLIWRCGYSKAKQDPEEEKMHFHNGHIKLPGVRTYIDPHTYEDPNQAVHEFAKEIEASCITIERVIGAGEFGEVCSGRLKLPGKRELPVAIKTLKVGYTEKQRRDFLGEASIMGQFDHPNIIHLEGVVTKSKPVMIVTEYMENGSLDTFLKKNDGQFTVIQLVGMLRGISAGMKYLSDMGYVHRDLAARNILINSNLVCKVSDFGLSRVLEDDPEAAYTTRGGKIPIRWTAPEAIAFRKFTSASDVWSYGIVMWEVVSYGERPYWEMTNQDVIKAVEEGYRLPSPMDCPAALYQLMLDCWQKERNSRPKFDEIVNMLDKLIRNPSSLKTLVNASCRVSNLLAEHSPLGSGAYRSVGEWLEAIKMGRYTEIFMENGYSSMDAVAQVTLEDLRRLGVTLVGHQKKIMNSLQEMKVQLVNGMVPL
T3 sequence (Q13557 whole entry): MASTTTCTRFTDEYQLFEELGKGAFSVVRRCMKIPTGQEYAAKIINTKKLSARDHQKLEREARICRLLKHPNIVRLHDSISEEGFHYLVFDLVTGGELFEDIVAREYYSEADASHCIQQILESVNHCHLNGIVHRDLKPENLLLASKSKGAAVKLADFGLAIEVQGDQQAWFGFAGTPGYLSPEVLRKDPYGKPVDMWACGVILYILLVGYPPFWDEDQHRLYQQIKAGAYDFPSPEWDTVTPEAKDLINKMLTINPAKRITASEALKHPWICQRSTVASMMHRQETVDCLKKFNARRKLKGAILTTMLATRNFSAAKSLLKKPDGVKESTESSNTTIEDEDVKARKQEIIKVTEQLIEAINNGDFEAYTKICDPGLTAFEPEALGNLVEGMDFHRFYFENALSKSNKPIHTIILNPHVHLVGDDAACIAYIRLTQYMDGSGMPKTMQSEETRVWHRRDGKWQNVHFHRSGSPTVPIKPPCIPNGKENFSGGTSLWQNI

**Q.** For `CC(C)(C)N1CCC(c2cc(-c3ccc(F)cc3Cl)c3cc[n+]([O-])c(-c4c(Cl)cccc4Cl)c3n2)CC1` [compound 2], which remaining activity at 10 µM (ASK1) is on record?
**A.** The remaining activity at 10 µM was 100%.

**Q.** And the remaining activity at 10 µM (JAK3)?
**A.** Its remaining activity at 10 µM is 102%.

**Q.** And the remaining activity at 10 µM (CaMKIIδ)?
**A.** Its remaining activity at 10 µM is 100%.

**Q.** What about the remaining activity at 10 µM (Plk3) of the same molecule?
**A.** Its remaining activity at 10 µM is 111%.

**Q.** What about the remaining activity at 10 µM (EphA5) of the same molecule?
**A.** The remaining activity at 10 µM was 95%.

**Q.** For `Cc1ccc(C(=O)NCC2CC2)cc1-c1ccc2c(c1)NC(=O)C21CCCC1` [compound 3], which remaining activity at 10 µM (ASK1) is on record?
**A.** The remaining activity at 10 µM was 97%.

**Q.** And the remaining activity at 10 µM (JAK3)?
**A.** The remaining activity at 10 µM was 100%.

**Q.** What about the remaining activity at 10 µM (CaMKIIδ) of the same molecule?
**A.** The remaining activity at 10 µM was 103%.

**Q.** What about the remaining activity at 10 µM (Plk3) of the same molecule?
**A.** The remaining activity at 10 µM was 101%.

**Q.** And the remaining activity at 10 µM (EphA5)?
**A.** Its remaining activity at 10 µM is 99%.

**Q.** How did the remaining activity at 10 µM (ASK1) turn out when `Cn1cc(-c2cccc(-c3nc(C(=O)NC4C5CC6CC4CC(O)(C6)C5)c(N)nc3N)c2)cn1` (stereo not shown) [compound 4] was run?
**A.** Its remaining activity at 10 µM is 92%.

**Q.** What about the remaining activity at 10 µM (JAK3) of the same molecule?
**A.** Its remaining activity at 10 µM is 89%.

**Q.** What about the remaining activity at 10 µM (CaMKIIδ) of the same molecule?
**A.** The remaining activity at 10 µM was 93%.

**Q.** And the remaining activity at 10 µM (Plk3)?
**A.** The remaining activity at 10 µM was 95%.

**Q.** What about the remaining activity at 10 µM (EphA5) of the same molecule?
**A.** The remaining activity at 10 µM was 93%.

**Q.** With `CS(=O)(=O)N1CCN(c2ccc(Nc3ncc(C(N)=O)c(NC4CC4)n3)cc2)CC1` [compound 5] as the molecule, how does the remaining activity at 10 µM (ASK1) read?
**A.** Its remaining activity at 10 µM is 0%.

**Q.** What about the remaining activity at 10 µM (JAK3) of the same molecule?
**A.** Its remaining activity at 10 µM is -2%.

**Q.** And the remaining activity at 10 µM (CaMKIIδ)?
**A.** Its remaining activity at 10 µM is 27%.

**Q.** What about the remaining activity at 10 µM (Plk3) of the same molecule?
**A.** Its remaining activity at 10 µM is 63%.

**Q.** What about the remaining activity at 10 µM (EphA5) of the same molecule?
**A.** The remaining activity at 10 µM was 56%.

**Q.** What does the source list for `COc1c(NC(=O)c2ccc(C)c(-c3nnc4c(NCC(C)(C)C)nccn34)c2)cc(C(C)(C)C)cc1NS(C)(=O)=O` [compound 7, reference compound]?
**A.** remaining activity at 10 µM (ASK1): 87%; remaining activity at 10 µM (JAK3): 99%; remaining activity at 10 µM (CaMKIIδ): 96%; remaining activity at 10 µM (Plk3): 104%; remaining activity at 10 µM (EphA5): 65%
